For assay [1], the system named is type 1 fimbriated E. coli (HB101pPKL4); FimH-mediated binding to mannan. The experiment in a line: ELISA, inhibition of mannose-specific type 1 fimbriated E. coli adhesion to mannan-coated microtiter plates. It counts as cell-based. As to the method: The synthesis of the bivalent glycopeptide 1 was not optimized in order to improve all the individual yields, because it has been the primary goal of this study to test the anti-adhesive properties of this type of ligand. An ELISA was performed as reported earlier, employing type 1 fimbriated E. coli bacteria and mannan-coated microtiter plates. In this assay a mannosidic ligand competes with the polysaccharide mannan adsorbed on a polystyrene microtiter plate for FimH-mediated binding to the type 1 fimbriated bacteria. The inhibitory ligand is employed in serial dilutions. This leads to inhibition curves, from which IC50-values can be deduced. The IC50-values reﬂect the inhibitor concentration that causes 50% inhibition of bacterial binding to mannan. […] Here, RIPs were based on the IC50-value determined for MeMan on the same plate, which was defined as IP ≡ 1. […]
An ELISA protocol was used to determine the IC50-value of the bivalent target glycopeptide 1 in comparison with monovalent reference ligands, employing mannan-coated microtiter plates and type 1 fimbriated E. coli (HB101pPKL4) as described earlier Optical densities (ODs) were measured on an AMP 400 COM ELISA reader at 405 nm (reference wavelength 492 nm). The percentage inhibition was calculated as {[OD(nI)-OD(I)] × 100 × [OD(nI)]^−1} (nI: no inhibitor, I: with inhibitor). […]
In general terms: An ELISA detects its analyte on a solid surface through an enzyme-linked reagent.

Assay [2] has the same test system. As to conditions: relative to MeMan, IP(MeMan) ≡ 1; ELISA, as reported earlier; ref 34 (DubberMSperlingOLindhorstT KOrg Biomol Chem2006439013912); cited from earlier work. The text has this: Table 1 Inhibitory potencies in mannose-specific E. coli adhesion of the bivalent glycopeptide 1 in comparison with reference ligands, as determined by ELISA. IC50-values are average values from three independent assays. S: standard deviation; RIP: relative inhibitory potency based on methyl α-D-mannopyranoside (MeMan) with IP(MeMan) ≡ 1.

Like-named read-outs stand apart in the source and are kept apart here. Marks after values point to notes of the source that are not given here.

Consider `CO[C@H]1O[C@H](CO)[C@@H](O)[C@H](O)[C@@H]1O` [MeMan, methyl α-D-mannopyranoside], for which, in assay [1] (mannan from Saccharomyces cerversiae coated (1 mg × ml^−1, 50 mM aq Na2CO3, pH 9.6), type 1 fimbriated E. coli (HB101pPKL4), OD at 405 nm (reference 492 nm), inhibitor in serial dilutions, sigmoidal fit, average values from three independent assays, S (in parentheses): standard deviation, read-out: IC50 (inhibitor concentration that causes 50% inhibition of bacterial binding to mannan)), the IC50 was 2.9 mM. In assay [1] (relative to IC50 of MeMan on the same plate, IP(MeMan) ≡ 1, type 1 fimbriated E. coli on mannan), the “RIP (relative inhibitory potency)” value is 1.

Consider `C=CCO[C@H]1O[C@H](CO)[C@@H](O)[C@H](O[C@H]2O[C@H](CO)[C@@H](O)[C@H](O)[C@@H]2O)[C@@H]1O` [allyl Man(1,3)Man, allyl 3-O-α-D-mannosyl-α-D-mannoside], for which, in assay [2], the “RIP (relative inhibitory potency)” value was 7^a.

Consider `C=CCO[C@H]1O[C@H](CO[C@H]2O[C@H](CO)[C@@H](O)[C@H](O)[C@@H]2O)[C@@H](O)[C@H](O[C@H]2O[C@H](CO)[C@@H](O)[C@H](O)[C@@H]2O)[C@@H]1O` [allyl Man(1,3)[Man(1,6)]Man, allyl 3,6-di-O-(α-D-mannosyl)-α-D-mannoside], for which, in assay [2], the “RIP (relative inhibitory potency)” value is 20^a.

As for `C=CCO[C@H]1O[C@H](CO[C@H]2O[C@H](CO)[C@@H](O)[C@H](O)[C@@H]2O)[C@@H](O)[C@H](O)[C@@H]1O` [allyl Man(1,6)Man, allyl 6-O-α-D-mannosyl-α-D-mannoside], in assay [2], the “RIP (relative inhibitory potency)” value is 0.5^a.

The values above are taken from paper PMC2956480, “A bivalent glycopeptide to target two putative carbohydrate binding sites on FimH” (Beilstein Journal of Organic Chemistry, 2010).
